Assay [1] concerns the target T1, β-glucocerebrosidase (GBA) (Homo sapiens, UniProt P04062).
T1 construct: gene GBA1
T1 sequence (P04062 40-536): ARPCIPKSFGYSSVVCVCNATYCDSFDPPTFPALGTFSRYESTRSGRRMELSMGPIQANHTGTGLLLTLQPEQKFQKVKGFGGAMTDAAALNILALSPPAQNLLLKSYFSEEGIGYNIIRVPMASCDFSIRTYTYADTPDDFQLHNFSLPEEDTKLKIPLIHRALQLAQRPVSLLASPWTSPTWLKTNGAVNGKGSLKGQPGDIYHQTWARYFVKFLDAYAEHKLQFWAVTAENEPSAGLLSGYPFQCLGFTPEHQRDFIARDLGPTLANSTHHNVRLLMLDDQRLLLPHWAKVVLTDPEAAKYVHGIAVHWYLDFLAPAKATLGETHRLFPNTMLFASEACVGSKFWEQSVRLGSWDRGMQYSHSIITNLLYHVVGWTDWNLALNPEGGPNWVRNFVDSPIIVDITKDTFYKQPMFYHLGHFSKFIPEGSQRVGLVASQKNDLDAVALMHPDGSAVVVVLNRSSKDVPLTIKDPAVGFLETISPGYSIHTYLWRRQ
Nature of the assay: X-ray crystal structure at […] Å; IC50 against 4-MU-Glc hydrolysis at pH […]. In kind it is biochemical.

Assay [2] addresses T1, β-glucocerebrosidase (GBA). The experiment in a line: X-ray crystal structure at […] Å, crystals soaked with 2F-DNPGlc. It is filed as binding.

Regarding `OCC(CO)(CO)NCCCNC(CO)(CO)CO` [BTP, bis-Tris propane], it took 4.31 ± 0.42 mM to reach half-maximal inhibition in assay [1] (IC50). Regarding `O=[N+]([O-])c1ccc(O[C@@H]2O[C@H](CO)[C@@H](O)[C@H](O)[C@H]2F)c([N+](=O)[O-])c1` [2F-DNPGlc, 2,4-dinitrophenyl-2-deoxy-2-fluoro-β-D-glucopyranoside], the “X-ray crystal structure at 1.41 Å, crystals soaked with 2F-DNPGlc” value in assay [2] is listed as “showing unambiguous electron density for covalent binding of the 2-deoxy-2-fluoroglucose moiety to the catalytic nucleophile”.

Usually IC50 stands for the midpoint of a concentration-inhibition curve. Lower therefore signals higher potency.
